This is an account of results in patent US9777037B2, “Neurosteroid compounds” (BIONATURE E. A. LTD., priority 2007, dated 2017).

In test [1] the test system is Neural-crest derived PC12 cells. As to the kind of experiment: APOPercentage apoptosis assay, serum-deprivation induced apoptosis of PC12 cells. It is filed as cell-based, rat. To be noted: for IC50: Rattus norvegicus, PC-12, absence of serum 12 hours, ApoPercentage assay (FIG. 2), read-out: IC50 of anti-apoptotic, cytoprotective effect. The procedure:
Neural-crest derived PC12 cells were maintained in culture at 5% CO2, at 37° C., in RPMI 1640 medium containing 2 mM L-glutamine, 15 mM HEPES, 100 units/ml penicillin, 0.1 mg/ml streptomycin, 10% horse serum, and 5% foetal calf serum. Serum free medium was supplemented with 1% bovine serum albumin (BSA). Different steroids, used at various concentrations, were initially diluted in ethanol. The final concentration of ethanol in each well, including controls was 0.01%. Conjugate DHEA-BSA was initially diluted in Phosphate Buffer Saline (PBS).
Cells were cultured in the absence of serum for 12 hours, supplemented with DHEA and various synthetic spiro neurosteroids at 10 nM. Cell apoptosis was quantitated with two different methods: The APOPercentage Apoptosis Assay (Biocolor Ltd., Belfast, N. Ireland) was used to quantify apoptosis, according to the manufacturer's instructions. Apoptosis was quantified following cell lysis by measuring the dye incorporated in apoptotic cells at 550 nm (reference filter 620 nm) using a colour filter microplate colorimeter (Dynatech MicroElisa reader, Chantilly, Va.) (see FIGS. 1 and 2). FACS Analysis: FACS analysis of apoptotic cells was performed according to our protocol (Proc Natl Acad Sci USA 101,8209 (2004)). Flow cytometry was performed with FACScan (Becton Dickinson, Heidelberg, Germany) and the results were analysed with the FACScan and Cell Quest softwares (see FIG. 3).

The test system of test [2] is Bcl-2 and Bcl-xL proteins. Briefly: Western blot of anti-apoptotic Bcl-2 and Bcl-xL proteins in serum-deprived PC12 cells. To be noted: 10 nM neurosteroid (FIG. 4). The class given is cell-based, rat. The method, then:
Neural-crest derived PC12 cells were cultured for 8 hours in the absence of serum, but supplemented with 10 nM of various neurosteroids. At the end of incubation cell lysates were subjected to electrophoresis through a 12% SDS-polyacrylamide gel. Then, proteins were transferred to nitrocellulose membranes, which were processed according to standard Western blotting procedures. To detect protein levels, membranes were incubated with the appropriate antibodies: Bcl-2, (Santa Cruz Biotechnology Inc., Santa Cruz, Calif., dilution 1:100) Bcl-xL (Cell Signalling Technology Inc., Beverly, Mass., dilution 1:100). A PC-based Image Analysis program was used to quantify the intensity of each band (Image Analysis, Inc., Ontario, Canada). To normalize for protein content, the blots were stripped and stained with anti-actin antibodies (Chemicon, Temecula, Calif., dilution 1:400); the concentration of each target protein was normalized versus actin.

Test [3] deals with DHEA specific membrane receptors. Briefly: [3H]DHEA competition binding on isolated PC12 cell membranes. As to conditions: for Kd: isolated PC12 cell membranes, 5 nM [3H]DHEA (FIG. 5). The arrangement: species or system rat. The method, then: PC12 rat sympathoadrenal cells were cultured in 225 cm^2 flasks and, after washing twice with PBS, they were detached from the flasks by vigorous shaking. After a centrifugation at 1500 g, they were homogenized by sonication, in a 50 mM Tris-HCl buffer pH 7.4 at 4° C., containing freshly added protease inhibitors (1 mM PMSF and 1 μg/ml aprotinin). Unbroken cells were removed by centrifugation at 1500 g (10 min at 4° C.), and membranes were collected by centrifuging at 102,000 g for 1 hr at 4° C. Membranes were washed once with Tris-HCl, briefly acidified at 4° C. (for 3 min) with 50 mM glycine (pH 5.0), and re-suspended in the same buffer. Protein content was assayed by the method of Bradford, using reagents from Bio-Rad (Hercules, Calif.). Membranes (at a final concentration of 2 mg/ml) were incubated with 5 nM [^3H]DHEA, in the absence (to determine the total binding) or presence of unlabeled neurosteroids and their synthetic spiro analogs, at concentrations varying from 10^−12 to 10^−6 M and at a final volume of 100 μl, in Tris-HCl buffer (50 mM, pH 7.4). Following a […] incubation in a water bath, at 37° C., membranes were collected on GF/B filters, prewet in 0.5% PEI solution at 4° C. The filters were washed three times with ice-cold Tris-HCl, dried, supplemented with scintillation medium (Sigma Hellas, Athens, Greece) and counted in a β-scintillation counter (Perkin Elmer, Foster City, Calif.) with 60% efficiency for Tritium.

In test [4] the test system is Dopaminergic neural-crest derived PC12 cells. Briefly: Dopamine secretion from dopaminergic PC12 cells (radioimmunoassay). It is filed as cell-based, rat. To be noted: 10^-7 M; for stimulation of dopamine secretion, short-term: 5 to 30 min, effect within 10 min (FIG. 6A); for dopamine levels in culture media, long-term: 3 to 48 hours (FIG. 6B). The method, then: Dopaminergic neural-crest derived PC12 cells were grown in 6-well plates, coated with poly-L-lysine, at a concentration of 10^6 cells/well. Cells were incubated with neurosteroids or the vehicle for several time periods; for the short-term experiments the incubation time ranged from 5 to 30 minutes and for the long-term from 3 to 48 hours. 1 mL of supernatants were transferred to tubes containing 200 μl 0.1 M HCl for measurement of dopamine, which was measured by radioimmunoassay (TriCat™ RIA, RE29395, IBL Immuno Biological Lab., Hamburg, Germany) using ^125I as a tracer. The analytical sensitivity of the method was 30 pg/ml, its intra-assay CV was 9.5%, and its inter-assay CV was 16.7%. The cross reactivity between dopamine and norepinephrine was <0.013%

The subject of test [5] is Primary cortical neurospheres. As to the kind of experiment: Migration of neural cells from primary cortical neurospheres. To be noted: 10^-7 M, within 24-48 hrs of culture, EGF/bFGF dependent (FIG. 7). The class given is cell-based, mouse. The method, then:
Primary cortical neurospheres (21d) generated from wild type mice were cultured attached on PLL and laminin-coated coverslips in serum-free media in the presence or absence of EGF and bFGF (20 ng/ml final concentration each). For the screen, the media was supplemented with ethanol, retinoic acid (at-RA), DHEA, or the synthetic spiro neurosteroid BNN-93, at a final concentration of 10^−7M.

The test system of test [6] is tyrosine hydroxylase mRNA. Briefly: Tyrosine hydroxylase (TH) RT-PCR in dopaminergic PC12 cells. The class given is cell-based, rat. To be noted: dopaminergic PC12 cells (FIG. 6C). The method, then: Tyrosine Hydroxylase (TH) RT-PCR: Total RNA was extracted from dopaminergic PC12 cells using the Trizol Reagent (Invitrogen Life technologies, CA). One microgram of total RNA was reverse transcribed by the Thermo-Script RT-PCR System (Invitrogen) using random hexamers in a total volume of 20 μl. Two microliters of the RT product was used as a template, amplified by PCR using 2 mM MgCl2, one strength PCR buffer, 0.2 mM of sense and antisense primers, 0.2 mM dNTPs and 2.5 U AmpliTaq Gold DNA polymerase (Perkin Elmer ABD, Foster City, Calif.) in a final reaction volume of 50 μl. PCR was performed in a Perkin Elmer DNA Thermal Cycler. Primers for TH were 5′-[…]-3′ (sense), and 5-[…]-3 (antisense) and for G3PDH were, 5′-[…]-3′ (sense), and 5′-[…]-3′ (antisense). Oligonucleotides were synthesized by MWG-Biotech AG (Munich, Germany). After reverse transcription, the cDNA product was amplified by PCR, at 33 cycles. The cycle number (33) was chosen such that amplification of the products was in the linear range with respect to the amount of input cDNA. PCR for G3PDH was performed in parallel to assure good quality of RNA and cDNA preparations. Each cycle consisted of 60 s at 92° C. for denaturation, 120 s at 53° C. for annealing, and 180 s at 72° C. for extension (60 s at 98° C., 90 s at 55° C., and 150 s at 72° C. for G3PDH respectively). 10 μl of the amplified products (368 bp for TH and 983 bp for G3PDH) were separated on a 2% agarose gel and visualized by ethidium bromide staining.

Another test relates to progenitor neural cells. As to the kind of experiment: Neurogenesis of progenitor neural cells isolated from mouse fetal brain. As to conditions: 100 nM, 24 hours (FIG. 8). The class given is cell-based. The method, then: This effect appeared to be EGF/bFGF dependent. […] The extent of migration of the first days in culture was mostly normalised as in most conditions cells had migrated out of the sphere to the periphery. The photographs shown (FIG. 7) were obtained on the 6th day of culture where migration effects are not so dramatic but still evident. Additionally, progenitor neural cells, isolated from mouse fetal brain, were exposed for 24 hours to 100 nM of BNN-93 or to the vehicle (control).

Test [7] has as its system Bcl-2 protein and ERK1/2 kinase. As to the kind of experiment: Western blot of Bcl-2 and phosphorylated ERK1/2 in serum deprived PC12 cells. The class given is cell-based, rat. As to conditions: 8 hours, 10 nM BNN-124 or 20 ng/ml NGF (FIG. 9). The procedure: Neural-crest derived PC12 cells were cultured for 8 hours in the absence of serum, but supplemented with 10 nM of synthetic neurosteroids of 20 ng/ml of NGF. At the end of incubation cell lysates were subjected to electrophoresis through a 12% SDS-polyacrylamide gel. Then proteins were transferred to nitrocellulose membranes, which were processed according to standard Western blotting procedures. To detect protein levels, membranes were incubated with the appropriate antibodies: Bcl-2 (Santa Cruz Biotechnology Inc., Santa Cruz, Calif., dilution 1:100), phosphorylated ERK1/2 (Cell Signalling Technology Inc., Beverly, Mass., dilution 1:100). To normalize for protein content, the blots were stripped and stained with anti-actin or anti-total ERK1/2 antibodies (Chemicon, Temecula, Calif., dilution 1:400).
Background: A western blot detects proteins with antibodies after separation by electrophoresis.

In the case of `C[C@]12CC[C@H](O)CC1=CC[C@@H]1[C@@H]2CC[C@]2(C)C(=O)CC[C@@H]12` [DHEA, dehydroepiandrosterone, reference compound], the IC50 in test [1] was determined as 0.15 nM. Further, the “reversal of serum deprivation-induced apoptosis” value in test [1] (absence of serum 12 hours, steroids at 10 nM (FIG. 1)) was approximately 50%. The “levels of anti-apoptotic Bcl-2 and Bcl-xL proteins” value in test [2] is “preventing this effect”. In addition, in test [3] (at 1 μM, PC12 cell membranes), the “competition for [3H]DHEA binding” value is recorded as “Almost complete competition”. The Kd in test [3] was 1.1 nM. Moreover, in test [4], the “stimulation of dopamine secretion, short-term” value was “doubling their levels”. The “migration of neural cells to the periphery of the neurospheres” value in test [5] was “extensive migration”.

In the case of `C[C@]12CC[C@H](OS(=O)(=O)O)CC1=CC[C@@H]1[C@@H]2CC[C@]2(C)C(=O)CC[C@@H]12` [DHEAS, reference compound], the “dopamine levels in culture media, long-term” value in test [4] is “increase of dopamine levels peaking at 24 h”. The “induction of tyrosine hydroxylase mRNA” value in test [6] was “strong induction”.

Turning to `C[C@]12CC[C@H](O)CC1=CCC1C2CC[C@@]2(C)C1CC[C@@]21OC1CO` (stereo partly drawn) [BNN-93, 3β,21-dihydroxy-17α,20-epoxy-5-pregnene], in test [1], the IC50 is 4.16 nM. Also, in test [2], the “levels of anti-apoptotic Bcl-2 and Bcl-xL proteins” value is on record as “preventing this effect”. The “displacement of specific [3H]DHEA binding” value in test [3] (at 1 μM, PC12 cell membranes) is listed as “approximately 60%”. For the same compound, binding in test [3] was put at a Kd of 11.2 nM. In addition, in test [4], the “dopamine levels in culture media, long-term” value is on record as “increase of dopamine levels peaking at 24 h” and the “stimulation of dopamine secretion, short-term” value is reported as “doubling their levels”. In addition, the “induction of tyrosine hydroxylase mRNA” value in test [6] was “strong induction”. Besides, the “migration of neural cells to the periphery of the neurospheres” value in test [5] is listed as “extensive migration”. The “neurogenesis and differentiation of progenitors to neural cells” value in the test on progenitor neural cells is “stimulated neurogenesis and differentiation”.

As to NGF: nerve growth factor, the “induction of anti-apoptotic Bcl-2 protein and phosphorylation of ERK1/2 kinase” value in test [7] is “inducing”.

By IC50 is commonly meant the midpoint of a concentration-inhibition curve. For orientation: Kd means a measure of binding affinity in units of concentration. A lower Kd goes with tighter binding.
